Measured values: patent US7332631B2, “Fc receptor modulating compounds and compositions” (Trillium Therapeutics Inc., priority 2002, dated 2008)
pIC50: −log10 of the molar value. “And” between values parts separate entries of the source, which are not always exact repeats. Identical values can stand only once. Like-named read-outs stand apart in the source and are kept apart here. Peptide text beside a SMILES is read from it. * marks the point of attachment. Cbz = O=C(OCc1ccccc1)*

How the values were obtained:
[1] = molecular target: HSA-FcγRIIa (Homo sapiens, UniProt P02768+P12318); test: ELISA Inhibition Assay: inhibition of human IgG complex binding to plate-bound HSA-FcγRIIa; conditions: HSA-FcγRIIa 5 μg/ml on plate, human IgG complex 0.2 μg/ml
HSA-FcγRIIa, sequence (P02768+P12318 fused): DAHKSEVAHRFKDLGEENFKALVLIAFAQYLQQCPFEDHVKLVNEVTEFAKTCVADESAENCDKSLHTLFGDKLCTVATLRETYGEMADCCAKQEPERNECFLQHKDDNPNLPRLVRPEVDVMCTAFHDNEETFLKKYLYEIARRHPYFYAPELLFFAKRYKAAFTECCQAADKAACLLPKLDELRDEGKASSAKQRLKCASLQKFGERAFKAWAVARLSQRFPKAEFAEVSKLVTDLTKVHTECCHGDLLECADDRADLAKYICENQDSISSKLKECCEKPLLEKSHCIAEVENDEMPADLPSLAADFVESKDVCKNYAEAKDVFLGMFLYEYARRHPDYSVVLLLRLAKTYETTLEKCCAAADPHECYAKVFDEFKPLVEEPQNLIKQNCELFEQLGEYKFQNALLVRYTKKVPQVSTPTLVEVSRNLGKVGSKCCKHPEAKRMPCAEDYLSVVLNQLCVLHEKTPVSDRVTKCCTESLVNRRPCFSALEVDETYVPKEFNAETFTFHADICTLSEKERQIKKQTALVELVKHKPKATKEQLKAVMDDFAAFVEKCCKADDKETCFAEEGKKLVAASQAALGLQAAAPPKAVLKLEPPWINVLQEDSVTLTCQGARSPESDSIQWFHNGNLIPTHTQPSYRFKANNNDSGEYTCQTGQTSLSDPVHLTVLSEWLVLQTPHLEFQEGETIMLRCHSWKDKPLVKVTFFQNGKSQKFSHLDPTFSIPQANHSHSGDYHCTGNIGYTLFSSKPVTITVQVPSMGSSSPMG
Protocol: The compounds may also be screened using an ELISA inhibition assay to detect the blockade of IgG interaction with FcγRIIa.
Compounds were also screened using an ELISA Inhibition Assay. Human Serum Albumin genetically fused to FcγRIIa (HSA-FcγRIIa) was bound to an ELISA plate at a concentration of 5 μg/ml. The small molecule inhibitors were titrated from a starting concentration of 5 mg/ml and allowed to incubate in the presence of the receptor. A human IgG complex (0.2 μg/ml) is then added to the plate and the extent of inhibition of IgG binding by the small molecule inhibitors was measured using HRP labelled anti-human antibody.

[2] = molecular target: T1, FcγRIIa (Homo sapiens, UniProt P12318); test: FACS assay of activation of human platelets by heat aggregated IgG (HAGG), P-Selectin expression; type: cell-based; conditions: for inhibition at 500 µg/mL / % Inhibition of platelet Activation: primary screen, single concentration of inhibitor 500 μg/ml, HAGG 40 μg/ml, several values = repeat determinations; for inhibition at 500 µg/mL: read-out: % Inhibition of platelet Activation
T1 construct: endogenous in cells; host or cells: washed human platelets
T1 sequence (P12318 34-317): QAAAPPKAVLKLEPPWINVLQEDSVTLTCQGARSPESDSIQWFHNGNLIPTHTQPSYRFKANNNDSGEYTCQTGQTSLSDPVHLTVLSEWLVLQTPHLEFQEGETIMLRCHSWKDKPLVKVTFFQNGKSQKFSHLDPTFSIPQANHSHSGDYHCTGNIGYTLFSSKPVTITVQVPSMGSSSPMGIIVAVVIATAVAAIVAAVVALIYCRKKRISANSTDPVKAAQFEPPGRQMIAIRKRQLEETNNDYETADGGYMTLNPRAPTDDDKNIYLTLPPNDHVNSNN
Protocol: The compounds of Table 1 were screened in a FcγRIIa dependent platelet activation assay and/or aggregation assay where platelets are activated using heat aggregated human immunoglobulin G as an immune complex. Compounds inhibiting this process were then tested for specificity. Note that the platelets were used as the target as the only Fc receptor expressed on these cells is FcγRIIa. In addition, they are very difficult to inhibit and therefore this assists in identifying compounds with reasonable potency.
The compounds of the present invention were initially screened in a rapid FACS screening assay, measuring activation of human platelets by heat aggregated IgG. […] In addition, platelets are very sensitive to a range of stimuli and activate rapidly. Activation is measured by the appearance of the protein P-Selectin on the platelet membrane after exposure to various stimuli. The stimuli were heat aggregated with IgG and as specificity controls, collagen or thrombin.
Specifically, this assay utilises washed platelets and heat aggregated IgG (HAGG) as an immune complex (agonist) to activate and crosslink FcγRIIa. Because this is a primary screen a single concentration of small molecule inhibitor is added to the platelets (final concentration of 500 μg/ml) and allowed to incubate for 30 minutes. Heat Aggregated IgG (HAGG) (40 μg/ml) is then added to the platelets and allowed to incubate for 30 minutes. Paraformaldehyde is added to the platelets for 30 minutes prior to washing. Anti-P-Selectin (FITC conjugated) and Anti-CD41 (PE conjugated) are added and the platelets are then screened by FACS to detect expression of P-Selectin, a marker of platelet activation and CD41, which is expressed by all viable platelets.
In summary, for each compound tested the activity was measured as a function of inhibition of platelet activation and/or platelet aggregation as detailed above. Specificity is defined as specific inhibition of immune complex induced platelet activation but with no effect on arachidonic acid induced activation (and where tested no effect on thrombin, collagen or ADP induced activation).
The compounds were titrated and evaluated for capacity to prevent aggregated IgG induction of p-selectin expression as a measure of activation.

[3] = Solubility remark in the platelet activation screen; type: physicochemical; conditions: printed instead of a % inhibition value
[4] = in vitro testing, summary table, read-out: IC50 Platelet Inhibition
[5] = washed human platelets, HAGG as agonist, several values in a cell = repeat determinations, '(ICnn)' after a '<' bound = inhibition level at that concentration, read-out: Concentration at 50% inhibition of platelet activation by HAGG

Row | pIC50 [1] | pIC50 [2, 4] | pIC50 [2, 5] | SMILES | other results
1 | 2.21 | 4.40 | 4.40 | O=C(O)c1ccc(C(=O)/C=C/c2ccccc2)cc1 [Compound 237, 4-[(2E)-3-phenylprop-2-enoyl]benzoic acid] | –
2 | 1.76 | 3.57 | 3.57 | O=C(/C=C/c1ccccc1C(=O)O)c1ccc[nH]1 [Compound 238, 2-[3-Oxo-3-(1H-pyrrol-2-yl)propenyl]benzoic acid] | –
3 | – | 3.48 | 3.48 | N#CCCCSc1cccc(C(=O)O)c1 [Compound 239, 3-(3-Cyanopropylsulfanyl)benzoic acid] | IC50 ELISA [1]: -'ve
4 | – | – | > 3.78 and 3.77 | COc1ccc2sc(C(=O)O)c(OC3CCCCC3)c2c1 [Compound 276, 3-Cyclohexyloxy-5-methoxy-1-benzo[b]thiophene-2-carboxylic acid] | melting point: 176 to 177 °C
5 | 2.25 | 3.28 | 3.28 | O=C(O)c1cccc(C(=O)CSCC(=O)c2cccc(C(=O)O)c2)c1 [Compound 292, 1-(3-Carboxyphenyl)-2-[2-(3-carboxyphenyl)-2-oxoethylsulfanyl]ethanone] | –
6 | 2.80 | 3.28 | 3.28 | O=C(O)c1sc2ccccc2c1OCc1ccccc1 [Compound 333, 3-Benzyloxy-1-benzo[b]thiophene-2-carboxylic acid] | –
7 | 2.89 | 3.54 | 3.54 | Cc1c(C(C)(C)C)cc(/C=C(\C#N)C(=O)O)cc1C(C)(C)C [Compound 350] | –
8 | 2.70 | 3.66 | – | C/C(=C1\SC(=S)N(CC(=O)O)C1=O)c1cccc(O)c1 [Compound 374, 5-(-Methyl-3-hydroxybenzylidine)rhodanine-3-acetic acid] | –
9 | 3.00 | 3.55 | 3.55 | C/C(=C(/S)C(=O)NCC(=O)O)c1cccc(O)c1 [Compound 383, [3-(3-Hydroxyphenyl)-2-mercaptobut-2-enoylamino]acetic add] | –
10 | 2.16 | 4.30 | 4.30 | O=C(O)c1ccc(C(=O)CSc2ccccc2C(=O)O)cc1 [Compound 410, 2-{[2-(4-carboxyphenyl)-2-oxoethyl]thio}benzoic acid] | –
11 | 2.11 | 3.74 | 3.74 | N#Cc1cccc(C(=O)CSc2ccccc2C(=O)O)c1 [Compound 411, 2-{[2-(3-cyanophenyl)-2-oxoethyl]thio}benzoic acid] | –
12 | 2.15 | 4.22 | 4.22 | O=C(O)c1cccc(C(=O)CSc2ccccc2C(=O)O)c1 [Compound 412, 2-{[2-(3-carboxyphenyl)-2-oxoethyl]thio}benzoic add] | –

More lines, now with the values behind:

Row | SMILES | pIC50 [1] | pIC50 [2, 4] | pIC50 [2, 5] | other results
13 | O=C(O)c1ccc2c(c1)C(=O)c1cc(C(=O)O)ccc1-2 [Compound 001] | 1.91 | 3.21 | 3.22 | –
14 | O=C(O)c1sc2cc([N+](=O)[O-])ccc2c1Cl [Compound 026, 3-Chloro-6-nitro-1-benzo[b]thiophene-2-carboxylic acid] | 1.76 | 3.11 | 4.00 | –
15 | O=C(O)c1cccc([S+]([O-])c2cccc(C(=O)O)c2)c1 [Compound 032, 3-[(3-Carboxyphenyl)sulfinyl]benzenecarboxylic acid] | 2.55 | – | 4.15 | IC50 Platelet Inhibition ([2]; in vitro testing, summary table): -'ve
16 | O=C(O)c1c(Cl)c2ccc([N+](=O)[O-])cc2[s+]1[O-] (stereo not drawn) [Compound 044, 3-Chloro-6-nitro-1-benzo[b]thiophene-S-oxo-2-carboxylic acid] | – | – | 3.64 | –
17 | O=C(O)c1cccc(/C=N/c2cccc(C(=O)O)c2)c1 [Compound 076] | – | – | – | inhibition at 500 µg/mL [2]: 13%
18 | O=C(O)c1cccc(/C=N/Nc2cc(Cl)cc(Cl)c2)c1 [Compound 080] | – | – | – | Solubility (word printed in the % inhibition column) [3]: Insoluble
19 | O=C(O)c1ccc(/C=N/c2cccc(C(=O)O)c2)cc1 [Compound 081] | – | – | – | inhibition at 500 µg/mL [2]: 83%
20 | COc1cccc2c(OC(C)C)c(C(=O)Nc3nnn[nH]3)sc12 [Compound 090, 3-isopropoxy-7-methoxy-N-(1H-1,2,3,4-tetrazol-5-yl)-1-benzo[b]thiophene-2-carboxamide] | – | – | 3.71 and 3.53 | –
21 | COc1ccc2sc(C(=O)Nc3nnn[nH]3)c(OC(C)C)c2c1[N+](=O)[O-] [Compound 092, 3-isopropoxy-4-nitro-5-methoxy-N-(1H-1,2,3,4-tetrazol-5-yl)-1-benzo[b]thiophene-2-carboxamide] | – | – | 3.36 | melting point: 236 to 238 °C
22 | O=C(O)c1cccc(CNc2cccc(C(=O)O)c2)c1 [Compound 100] | – | – | – | inhibition at 500 µg/mL [2]: 7%
23 | O=C(O)c1cccc(/C=N/c2cc(C(=O)O)cc(C(=O)O)c2)c1 [Compound 114] | – | – | – | inhibition at 500 µg/mL [2]: 8%
24 | O=C(Nc1cccc(C(=O)O)c1)Nc1cccc(C(=O)O)c1 [Compound 192] | – | – | – | % Inhibition of platelet Activation [2]: 19%; inhibition at 500 µg/mL [2]: 22%
25 | O=C(O)CCCCCNC(=O)OCc1ccccc1 [Compound 197] | 2.03 | 2.89 | – | –
26 | O=C(O)c1cccc(/C=N/Nc2cccc(C(=O)O)c2)c1 [Compound 200] | – | – | – | % Inhibition of platelet Activation [2]: 98% and 54% and 95%
27 | N#Cc1cccc(C(=O)CSc2cccc(C(=O)O)c2)c1 [Compound 216, 3-[2-(3-Cyanophenyl)-2-oxoethylsulfanyl]benzoic acid] | 2.52 | 3.60 | 3.62 | –
28 | O=C(O)c1cccc(SCC(=O)c2cccc(C(=O)O)c2)c1 [Compound 217, 3-[2-Oxo-2-(3-carboxyphenyl)ethylsulfanyl]benzoic acid] | 2.21 | 3.49 | 3.44 and < 3.20 | –
29 | O=C(O)CCNC(=O)OCc1ccccc1 [Compound 233] | – | – | – | % Inhibition of platelet Activation [2]: 74%
30 | CC(NC(=O)CNC(=O)CNC(=O)OCc1ccccc1)C(=O)O (stereo not drawn) [Compound 235] | – | – | – | % Inhibition of platelet Activation [2]: 30% and 49% and 54%
31 | O=C(O)CNC(=O)CNC(=O)OCc1ccccc1 [Compound 236] (Cbz-Gly-Gly-OH) | – | – | – | % Inhibition of platelet Activation [2]: 34% and 33% and 65%
32 | O=C(O)c1cccc(SCC(=O)c2ccccc2)c1 [Compound 294] | 2.22 | 4.10 | > 3.72 and 3.87 and 3.81 and 4.10 | –
33 | O=C(O)/C=C/c1ccc(OCCc2ccccc2)cc1 [Compound 299, 4-Phenethyloxycinnamic acid] | 2.14 | 3.39 | 3.39 | –
34 | O=C(O)c1ccc(SCC(=O)c2ccccc2)cc1 [Compound 384, 4-[(2-oxo-2-phenylethyl)thio]benzoic acid] | 2.32 | 3.77 | 3.77 | –
35 | N#Cc1cccc(C(=O)CSc2ccc(C(=O)O)cc2)c1 [Compound 385, 4-{[2-(3-cyanophenyl)-2-oxoethyl]thio}benzoic acid] | 2.17 | 3.44 | 3.44 | –
